# Patent US5002773A, “Transdermal delivery of (+) (2S,3S)-3-acetoxy-8-chloro-5-(2-dimethylaminoethyl)-2,3-dihydro-2-(4-met hoxyphenyl)-1,5-benzothiazepin-4-(5H)-one” (Marion Merrell Dow Inc., priority 1989, dated 1991)
# Structures can show the parent of a compound that is named as a salt.
# Legend:
# [1] = system: calcium channel; details: background statement; cited from earlier work
# [2] = Solubility of TA-3090 in donor solution; assay type: physicochemical; details: aqueous buffer, phosphate buffer, 37° C., mean and SD, n=3
# Method: (§1) TA-3090 skin permeability was determined using a freshly excised hairless mouse skin and a side-by-side type of diffusion cell (available from Crown Glass Co., Somerville, N.J.). About 2.5 cm×2.5 cm portion of freshly excised hairless mouse skin (5-7 week old, male), prepared as described in Example 4, was mounted between the two chambers of the side-by-side diffusion cell and securely clamped. Saturated solution (with some extra drug in suspension state) of TA-3090 free base in phosphate buffer solution maintained at a particular pH was introduced into the donor side (the side facing the stratum corneum). 5% Trycol® solution in normal saline, prepared as described in Example 4, was introduced in the receptor compartment (the side facing the dermis side of the skin). Both donor and receptor compartments were maintained at 37° C. by a thermostatically controlled circulating water bath. At predetermined time intervals (usually at 3, 6, 12 and 24 hours) the entire volume of the receptor solution was withdrawn and immediately replaced with the same volume of the fresh, drug-free Trycol® solution at 37° C. to maintain the sink condition. […] From the concentration profiles of TA-3090 in the receptor compartment, the flux (mcg/cm^2) of skin permeation was calculated using a computer program and then plotted as a function of time (hour). Slope of this line gave the value of skin permeation rate (mcg/cm^2 /hr).
# [3] = once-a-day oral dose; background statement; cited from earlier work
# [4] = Method: The model used is an in-vitro excised hairless mouse skin model which is known in the art. The permeation rates of TA-3090 through the excised skin were measured using a Franz diffusion cell.
# In-vitro evaluation of transdermal patches was accomplished using an excised hairless mouse/Franz diffusion cell model (available from Crown Glass Company, Somerville, N.J.) as follows. Immediately following sacrifice by cervical dislocation (or by CO2 gas), a portion (about 3.5 cm×3.5 cm) of the full-thickness abdominal skin was carefully excised from the hairless mouse (5-7 week old, male). The dermal side of the skin was carefully cleaned of any adhering subcutaneous tissue and/or blood vessels. […]
# At a predetermined time interval (usually 4, 8, 12 and 24 hours), the entire volume of the receptor solution was withdrawn and immediately replaced with the same volume of the fresh, drug-free Trycol solution at 37° C. to maintain the sink condition. The concentration of TA-3090 in the sample was determined by a sensitive HPLC method. From the concentration profiles of TA-3090 in the receptor compartment, the flux (mcg/cm^2) of skin permeation was calculated using a computer program and then plotted as a function of time (hour). […]
# [5] = Aqueous solubility of TA-3090 free base with 5% PEG 20 Oleyl ether; assay type: physicochemical; details: with 5% PEG 20 Oleyl ether as solubilizer
# Method: The aqueous solubility of TA-3090 free base was improved by the incorporation of 5% PEG 20 Oleyl ether as a solubilizer to maintain an effective sink condition required in the investigation, which simulates the biological sink achieved by hemoperfusion. […] Following this, the saline solution containing 5% w/w PEG 20 Oleyl ether (Trycol®) at 37° C. was introduced into the receptor compartment, which was thermostatically controlled at 37° C. by a circulating water bath.
# [6] = in vivo; details: guinea pig, plasma, topical or ocular
# [7] = Intrinsic in-vitro skin permeability of TA-3090 at various pH conditions (side-by-side diffusion cell); assay type: in vitro ADME, hairless mouse; details: for Papp: mouse, skin permeation rate/solubility, mean and SD, n=3
# Method: as §1
# [8] = literature statement; cited from earlier work
# [9] = Intrinsic in-vitro skin permeability of diltiazem (side-by-side diffusion cell); assay type: in vitro ADME, hairless mouse; details: skin permeation rate/solubility, mean and SD, n=3
# Method: About 2.5 cm×2.5 cm portion of freshly excised hairless mouse skin (5-7 week old, male) prepared as described in Example 4 above, was mounted between the two chambers of the side-by-side diffusion cell and securely clamped. […] 5% Trycol® solution in normal saline, prepared as described in Example 4 above, was introduced into the receptor compartment (the side facing the dermis side of the skin). Both donor and receptor compartments were maintained at 37° C. by a thermostatically controlled circulating water bath. At predetermined time intervals (usually at 3, 6, 12 and 24 hours) the entire volume of the receptor solution was withdrawn and immediately replaced with the same volume of fresh, drug-free Trycol® solution at 37° C. to maintain the […]. […] Slope of this line gave the value of skin permeation rate (mcg/cm^2 /hr).
smiles,measurement,setting,value
"COc1ccc([C@@H]2Sc3cc(Cl)ccc3N(CCN(C)C)C(=O)[C@@H]2OC(C)=O)cc1 [TA-3090, (+)(2S,3S)-3-acetoxy-8-chloro-5-(2-dimethylaminoethyl)-2,3-dihydro-2-(4-methoxyphenyl)-1,5-benzothiazepin-4-(5H)-one]",vasodilating activity,[1],potent vasodilating activity
same,solubility,[2]; donor side pH 5,7730 ± 1130 µg/mL
same,solubility,[2]; donor side pH 7,600 ± 20 µg/mL
same,solubility,[2]; donor side pH 9,60 ± 4 µg/mL
same,oral absorption,[3],incomplete oral absorption
same,rate of administration from the transdermal delivery device,[4],0.6 to 29.62 mcg/cm^2 /hr
same,aqueous solubility,[5],improved
same,concentration at 4 h,[6],11.4 ± 4.09 ng/mL
same,concentration at 8 h,[6],32.5 ± 4.56 ng/mL
same,concentration at 24 h,[6],75.6 ng/mL
same,concentration at 48 h,[6],71.1 ± 43.1 ng/mL
same,Papp,[7]; donor side pH 5,1.81 ×10⁻⁶ cm/s
same,Papp,[7]; donor side pH 7,13.4 ×10⁻⁶ cm/s
same,Papp,[7]; donor side pH 9,30.6 ×10⁻⁶ cm/s
same,Skin Permeation Rate,[7]; pH 5,49.04 ± 8.76 mcg/cm^2 /hr
same,Skin Permeation Rate,[7]; pH 7,29.39 ± 11.61 mcg/cm^2 /hr
same,Skin Permeation Rate,[7]; pH 9,6.75 ± 1.54 mcg/cm^2 /hr
"COc1ccc([C@@H]2Sc3ccccc3N(CCN(C)C)C(=O)[C@@H]2OC(C)=O)cc1 [diltiazem HCl, diltiazem hydrochloride]",permeability through skin / percutaneous absorption,[8],poor percutaneous absorption
same,Intrinsic Permeability,[9]; hydrochloride,1.66 ± 0.43 (cm/hr) × 10^-5
"COc1ccc([C@@H]2Sc3ccccc3N(CCN(C)C)C(=O)[C@@H]2OC(C)=O)cc1 [diltiazem free base, diltiazem]",Intrinsic Permeability,[9],186.96 ± 49.74 (cm/hr) × 10^-5
